{"source": "patent US20250312329A1", "about": "“MODIFIED RELEASE NICORANDIL COMPOUND FORMULATIONS” (AUXILIUS PHARMA SPOLKA Z OGRANICZONA ODPOWIEDZIALNOSCIA, priority 2021, published 2025)", "key": {"[1]": {"test": "Excipient/API powder blend stability: impurities and NCD content initially and after storage", "assay_type": "physicochemical", "description": "To better understand the stability of nicorandil formulations according to the invention at an ingredient level, the following powder blend combinations were generated and analyzed: • NCD+HPMC • NCD+Starch • NCD+MCC • NCD+Magnesium stearate • NCD+Mannitol (not used in current formulation) • NCD only […] These compositions were further analyzed (N=2) for impurities ([…]) and NCD content both initially and after 2 or 4 weeks of storage at accelerated stability testing conditions (40° C.) (per US FDA typical standards/procedures) or room temperature conditions (25° C.). Unknown impurities (“Unk. Imps.”) were also measured and the sum of all measured impurities (“Sum Imps.”) calculated."}, "[2]": {"conditions": "in vivo; cited from earlier work"}, "[3]": {"tested_on": "patients with stable angina", "conditions": "cited from earlier work"}, "[4]": {"test": "Loss of drying (LOD) of nicorandil/excipient powder blends", "assay_type": "physicochemical", "conditions": "1:1 excipient/API powder blend", "from_the_text": "To better understand the stability of nicorandil formulations according to the invention at an ingredient level, the following powder blend combinations were generated and analyzed: • NCD+HPMC • NCD+Starch • NCD+MCC • NCD+Magnesium stearate • NCD+Mannitol (not used in current formulation) • NCD only […]"}}}
{"smiles": "O=C(NCCO[N+](=O)[O-])c1cccnc1", "note": "[Nicorandil, N-[2-(Nitro-oxy)ethyl]-3-pyridine carboxamide]", "values": [{"measurement": "Imp A", "setting": "[1]; T = 0", "result": 0.00, "unit": "Weight Percent"}, {"measurement": "Imp B", "setting": "[1]; T = 0", "result": 0.01, "unit": "Weight Percent"}, {"measurement": "Imp C", "setting": "[1]; T = 0", "result": 0.01, "unit": "Weight Percent"}, {"measurement": "Imp D", "setting": "[1]; T = 0", "result": 0.11, "unit": "Weight Percent"}, {"measurement": "Mass Balance", "setting": "[1]; T = 0", "result": 98.60, "unit": "Weight Percent"}, {"measurement": "NCD", "setting": "[1]; T = 0", "result": 98.40, "unit": "Weight Percent"}, {"measurement": "Sum Imps.", "setting": "[1]; T = 0", "result": 0.20, "unit": "Weight Percent"}, {"measurement": "Unk. Imps.", "setting": "[1]; T = 0", "result": 0.06, "unit": "Weight Percent"}, {"measurement": "Imp A", "setting": "[1]; T = 2 weeks, 40° C.", "result": 0.00, "unit": "Weight Percent"}, {"measurement": "Imp B", "setting": "[1]; T = 2 weeks, 40° C.", "result": 0.04, "unit": "Weight Percent"}, {"measurement": "Imp C", "setting": "[1]; T = 2 weeks, 40° C.", "result": 0.05, "unit": "Weight Percent"}, {"measurement": "Imp D", "setting": "[1]; T = 2 weeks, 40° C.", "result": 0.22, "unit": "Weight Percent"}, {"measurement": "Mass Balance", "setting": "[1]; T = 2 weeks, 40° C.", "result": 100.01, "unit": "Weight Percent"}, {"measurement": "NCD", "setting": "[1]; T = 2 weeks, 40° C.", "result": 99.52, "unit": "Weight Percent"}, {"measurement": "Sum Imps.", "setting": "[1]; T = 2 weeks, 40° C.", "result": 0.49, "unit": "Weight Percent"}, {"measurement": "Unk. Imps.", "setting": "[1]; T = 2 weeks, 40° C.", "result": 0.18, "unit": "Weight Percent"}, {"measurement": "Imp A", "setting": "[1]; T = 4 weeks, 25° C.", "result": 0.00, "unit": "Weight Percent"}, {"measurement": "Imp B", "setting": "[1]; T = 4 weeks, 25° C.", "result": 0.00, "unit": "Weight Percent"}, {"measurement": "Imp C", "setting": "[1]; T = 4 weeks, 25° C.", "result": 0.00, "unit": "Weight Percent"}, {"measurement": "Imp D", "setting": "[1]; T = 4 weeks, 25° C.", "result": 0.12, "unit": "Weight Percent"}, {"measurement": "Mass Balance", "setting": "[1]; T = 4 weeks, 25° C.", "result": 108.41, "unit": "Weight Percent"}, {"measurement": "NCD", "setting": "[1]; T = 4 weeks, 25° C.", "result": 108.13, "unit": "Weight Percent"}, {"measurement": "Sum Imps.", "setting": "[1]; T = 4 weeks, 25° C.", "result": 0.29, "unit": "Weight Percent"}, {"measurement": "Unk. Imps.", "setting": "[1]; T = 4 weeks, 25° C.", "result": 0.17, "unit": "Weight Percent"}, {"measurement": "elimination half-life", "setting": "[2]", "result": "approximately 1 hour"}, {"measurement": "composite endpoint of coronary heart disease death, non-fatal MI or unplanned hospital admission with chest pain", "setting": "[3]; IONA study, versus placebo, average 1.6 years", "result": "reduction in the composite endpoint"}, {"measurement": "reduction in all-cause mortality", "setting": "[3]; JCAD study, average 2.7 years", "result": 35, "unit": "%"}, {"measurement": "reduction in cardiac death", "setting": "[3]; JCAD study, average 2.7 years", "result": 56, "unit": "%"}, {"measurement": "LOD (%)", "setting": "[4]", "result": 0.28, "unit": "%"}]}
